Patent US20250282735A1, “BICYCLE COMPOUNDS AS TEAD INHIBITOR” (DONG-A ST CO., LTD., priority 2022, published 2025)

Tested on: MSTO-211H cells
Assay: Proliferation assay (EdU incorporation), MSTO-211H
Type: cell-based
Details: Homo sapiens, 72 h, YAP-driven MSTO-211H (LATS1 mutation), 3 days with inhibitor, 1% serum
Description: The anti-proliferative activity of TEAD inhibitors was evaluated in cells with different properties for YAP; “YAP-driven” cells (MSTO-211H, NCI-H226) in which YAP located in the nucleus and “YAP-independent” cells (OCM1, NCI-H28) where YAP located in the cytoplasm. […] TEAD inhibitors were evaluated with cell lines with these YAP profiling and mutational status.
The next day, replace it with cell starvation medium containing 1% serum. After one day of growth in the starvation medium, the cells were incubated for 3 days with TEAD inhibitors in a concentration range of 0.01-10 μM. After 3 days, EdU (Invitrogen) at a concentration of 10 µM was added to the starvation medium and incubated for an additional 24 hours. After removing the starvation medium remaining in each well, wash the wells with PBS. Cells were fixed with 4% paraformaldehyde (Electron microscopy sciences) at room temperature for 20 minutes. After removing the fix solution remaining in each well, wash the wells with PBS and the cells were permeabilized for 40 minutes by adding 0.5% triton X-100 (Sigma Aldrich). After removing the permeabilization solution remaining in each well, the EdU labeling was performed according to the instructions of the manufacturer's instructions (Click-iT™ Cell Reaction Buffer Kit, Invitrogen). After the Click reaction for EdU labeling, nuclei were stained with […] (Thermo Scientific) for total cell count analysis. After plate preparation for detection, Image acquisition was performed using the ImageXpress Micro XLS. The acquired images were analyzed using MetaXpress software (molecular devices). Through this experimental method, it was possible to confirm the inhibitory activity of TEAD inhibitors by detection EdU incorporated into proliferating cells.
IC50 for cell proliferation inhibition activity are shown in the Table 2 below and designated within the following ranges. [+++: ≤0.1 μM, ++: >0.1 μM to ≤1 μM, +: >1 μM to ≤10μ, −: >10 μM]

| Structure (SMILES) | IC50 [nM] |
| --- | --- |
| C=CC(=O)Nc1ccc2c(/C=C/C3CCC(F)(F)CC3)cn(C)c2c1 [Compound 13, (E)-N-(3-(2-(4,4-Difluorocyclohexyl)vinyl)-1-methyl-1H-indol-6-yl)acrylamide] | 1000 to 10000 |
| C=CC(=O)Nc1ccc2c(c1)c(/C=C/c1ccc(Cl)cc1)c(C)n2C [Compound 14, (E)-N-(3-(4-Chlorostyryl)-1,2-dimethyl-1H-indol-5-yl)acrylamide] | 100 to 1000 |
| C=CC(=O)Nc1cnc2c(c1)c(/C=C/c1cccc(F)c1)cn2C [Compound 40, (E)-N-(3-(3-Fluorostyryl)-1-methyl-1H-pyrrolo[2,3-b]pyridin-5-yl)acrylamide] | 100 to 1000 |
| C=CC(=O)Nc1cnc2c(c1)c(/C=C/c1cccc(Cl)c1)cn2C [Compound 41, (E)-N-(3-(3-Chlorostyryl)-1-methyl-1H-pyrrolo[2,3-b]pyridin-5-yl)acrylamide] | ≤ 100 |
| C=CC(=O)Nc1cnc2c(c1)c(/C=C/c1ccc(OC)c(F)c1)cn2C [Compound 42, (E)-N-(3-(3-Fluoro-4-methoxystyryl)-1-methyl-1H-pyrrolo[2,3-b]pyridin-5-yl)acrylamide] | 100 to 1000 |
| C=CC(=O)Nc1cnc2c(c1)c(/C=C/c1ccc(C(C)C)cc1)cn2C [Compound 43, (E)-N-(3-(4-Isopropylstyryl)-1-methyl-1H-pyrrolo[2,3-b]pyridin-5-yl)acrylamide] | 100 to 1000 |
| C=CC(=O)Nc1cnc2c(c1)c(/C=C/c1ccc(F)c(F)c1)cn2C [Compound 44, (E)-N-(3-(3,4-Difluorostyryl)-1-methyl-1H-pyrrolo[2,3-b]pyridin-5-yl)acrylamide] | ≤ 100 |
| C=CC(=O)Nc1cnc2c(c1)c(/C=C/c1ccc(C(F)(F)F)cc1)cn2C [Compound 46, (E)-N-(1-Methyl-3-(4-(trifluoromethyl)styryl)-1H-pyrrolo[2,3-b]pyridin-5-yl)acrylamide] | 100 to 1000 |
| C=CC(=O)Nc1cnc2c(c1)c(/C=C/C1CCCCC1)cn2C [Compound 49, (E)-N-(3-(2-Cyclohexylvinyl)-1-methyl-1H-pyrrolo[2,3-b]pyridin-5-yl)acrylamide] | ≤ 100 |
| C=CC(=O)Nc1cnc2c(c1)c(-c1cccc(OCc3cccc(Cl)c3)c1)cn2C [Compound 52, N-(3-(3-((3-Chlorobenzyl)oxy)phenyl)-1-methyl-1H-pyrrolo[2,3-b]pyridin-5-yl)acrylamide] | 100 to 1000 |
| C=CC(=O)N(C)c1cnc2c(c1)c(/C=C/C1CCC(F)(F)CC1)cn2C [Example 66, (E)-N-(3-(2-(4,4-Difluorocyclohexyl)vinyl)-1-methyl-1H-pyrrolo[2,3-b]pyridin-5-yl)-N-methylacrylamide] | 100 to 1000 |

Tested on: TEAD reporter-containing human breast cancer cell line MCF7
Assay: TEAD reporter (luciferase) assay
Type: cell-based
Details: TEAD reporter MCF7 cells, 24 hours treatment, 1% serum media
Description: The TEAD reporter-containing human breast cancer cell line MCF7 (60618, BPS bioscience) was cultured according to the manufacturer's instructions. Cells were plated in 96-well white plates at a density of 30,000 per well and incubated overnight. The following day cells were treated with small molecules in 1% serum media (0.1% v/v DMSO). After 24 hours of the treatment, cell viability was evaluated by using CCK-8 reagent (CK04, Dojindo) and measuring absorbance at 450 nm. Then, the assay for luciferase activity was performed using Dual-Glo® Luciferase Assay System (Promega, E2940) following the manufacturer's instructions. Luminescence intensity was measured and the potency of the compounds was determined by IC50 value generated from non-linear regression analysis of the dose-response curves.
IC50 for luciferase activity are shown in the Table 1 below and designated within the following ranges. [+++: ≤0.1 μM, ++: >0.1 μM to ≤1 μM, +: >1 μM to ≤10 μM, −: >10 μM]

| IC50 [nM] | Structure (SMILES) |
| --- | --- |
| 1000 to 10000 | C=CC(=O)Nc1cnc2c(c1)c(-c1ccc(N3CCCCC3)cc1)cn2C [Example 102, N-(1-Methyl-3-(4-(piperidin-1-yl)phenyl)-1H-pyrrolo[2,3-b]pyridin-5-yl)acrylamide] |
| 100 to 1000 | C=CC(=O)Nc1cnc2c(c1)c(-c1ccc(C3CCCCC3)cc1)cn2C [Example 108, N-(3-(4-Cyclohexylphenyl)-1-methyl-1H-pyrrolo[2,3-b]pyridin-5-yl)acrylamide] |
| 1000 to 10000 | C=CC(=O)Nc1cnc2c(c1)c(-c1ccc(C(C)(C)C)cc1)cn2C [Example 109, N-(3-(4-(tert-Butyl)phenyl)-1-methyl-1H-pyrrolo[2,3-b]pyridin-5-yl)acrylamide] |
| 100 to 1000 | C=CC(=O)Nc1cnc2c(c1)c(-c1ccc(CCCC)cc1)cn2C [Example 110, N-(3-(4-Butylphenyl)-1-methyl-1H-pyrrolo[2,3-b]pyridin-5-yl)acrylamide] |
| > 10000 | C=CC(=O)Nc1cnc2c(c1)c(-c1ccc(CCCCCCCCC)cc1)cn2C [Example 112, N-(1-Methyl-3-(4-nonylphenyl)-1H-pyrrolo[2,3-b]pyridin-5-yl)acrylamide] |
| > 10000 | C=CC(=O)Nc1cnc2c(c1)c(-c1cc(C)c(O)c(C)c1)cn2C [Example 113, N-(3-(4-Hydroxy-3,5-dimethylphenyl)-1-methyl-1H-pyrrolo[2,3-b]pyridin-5-yl)acrylamide] |
| > 10000 | Cn1cc(/C=C/c2ccc(Cl)cc2)c2cc(NC(=O)CC#N)cnc21 [Example 115, (E)-N-(3-(4-chlorostyryl)-1-methyl-1H-pyrrolo[2,3-b]pyridin-5-yl)-2-cyanoacetamide] |
| 100 to 1000 | C=CS(=O)(=O)Nc1cnc2c(c1)c(/C=C/c1ccc(Cl)cc1)cn2C [Example 116, (E)-N-(3-(4-Chlorostyryl)-1-methyl-1H-pyrrolo[2,3-b]pyridin-5-yl) ethenesulfonamide] |
| 100 to 1000 | Cn1cc(/C=C/c2ccc(Cl)cc2)c2cc(NS(C)(=O)=O)cnc21 [Example 117, (E)-N-(3-(4-Chlorostyryl)-1-methyl-1H-pyrrolo[2,3-b]pyridin-5-yl) methanesulfonamide] |
| 1000 to 10000 | CN(C)C/C=C/C(=O)Nc1cnc2c(c1)c(-c1ccc(C(F)(F)F)cc1)cn2C [Example 120, (E)-4-(Dimethylamino)-N-(1-methyl-3-(4-(trifluoromethyl)phenyl)-1H-pyrrolo[2,3-b]pyridin-5-yl) but-2-enamide 2,2,2-trifluoroacetate] |
| ≤ 100 | C=CC(=O)Nc1ccc2c(c1)c(C1CCCCC1)cn2C [Example 123, N-(3-Cyclohexyl-1-methyl-1H-indol-5-yl)acrylamide] |
| ≤ 100 | C=CC(=O)Nc1ccc2c(c1)c(C1=CCC(C)(C)CC1)cn2C [Example 124, N-(3-(4,4-dimethylcyclohex-1-en-1-yl)-1-methyl-1H-indol-5-yl)acrylamide] |
| 1000 to 10000 | C=CC(=O)Nc1ccc2c(c1)c(C1=CCC(OC)CC1)cn2C (stereo not shown) [Example 125, N-(3-(4-Methoxycyclohex-1-en-1-yl)-1-methyl-1H-indol-5-yl)acrylamide] |
| > 10000 | C=CC(=O)Nc1ccc2c(c1)c(C1CCC(OC)CC1)cn2C (stereo not shown) [Example 126, N-(3-(4-Methoxycyclohexyl)-1-methyl-1H-indol-5-yl)acrylamide] |
| 1000 to 10000 | C=CC(=O)Nc1cnc2c(c1)c(-c1ccc(Cl)c(F)c1)cn2C(F)F [Example 133, N-(3-(4-Chloro-3-fluorophenyl)-1-(difluoromethyl)-1H-pyrrolo[2,3-b]pyridin-5-yl)acrylamide] |
| 100 to 1000 | C=CC(=O)Nc1cnc2c(c1)c(-c1cccc(C(F)(F)F)c1)cn2C(F)F [Example 134, N-(1-(Difluoromethyl)-3-(3-(trifluoromethyl)phenyl)-1H-pyrrolo[2,3-b]pyridin-5-yl)acrylamide] |
| 1000 to 10000 | C=CC(=O)Nc1cnc2c(c1)c(-c1ccc(F)c(Cl)c1)cn2C(F)F [Example 135, N-(3-(3-Chloro-4-fluorophenyl)-1-(difluoromethyl)-1H-pyrrolo[2,3-b]pyridin-5-yl)acrylamide] |
| ≤ 100 | C=CC(=O)Nc1cnc2c(c1)c(Cc1cccc(Cl)c1)cn2C [Example 136, N-(3-(3-Chlorobenzyl)-1-methyl-1H-pyrrolo[2,3-b]pyridin-5-yl)acrylamide] |
| ≤ 100 | C=CC(=O)Nc1cnc2c(c1)c(C=C1CCCCC1)cn2C [Example 137, N-(3-(Cyclohexylidenemethyl)-1-methyl-1H-pyrrolo[2,3-b]pyridin-5-yl)acrylamide] |
| ≤ 100 | C=CC(=O)Nc1cnc2c(c1)c(CC1CCCCC1)cn2C [Example 138, N-(3-(Cyclohexylmethyl)-1-methyl-1H-pyrrolo[2,3-b]pyridin-5-yl)acrylamide] |
